# Measurements as given in US11229628B2, “TRPA1 and TRPV4 inhibitors and methods of using the same for organ-specific inflammation and itch” (Duke University, priority 2015, dated 2022).
# Entries after “also recorded” stand apart in the source; their conditions may differ.
# Assays:
# mouse paw-pad skin = assay: UVB-photodermatitis of mouse paw-pad skin after topical treatment (immunolabeling, histopathology, Edn1 qPCR); type: in vivo
# Description: A viscous solution of 68% EtOH/5% glycerol plus 1 mM or 5 mM GSK205 (none for control) was applied to hindpaws by rubbing in 20 μL, applied at time-points 1 hour and again 10 min before UV exposure.
# Routine procedures were followed as described previously (Chen et al., 2009). Mice were perfused transcardially with 30 mL PBS, followed by 30 mL 4% paraformaldehyde. Tissues, including the L5 DRGs (bilateral), and footpad preparations, were dissected and post-fixed in 4% paraformaldehyde. Tissue blocks were further cryoprotected in 30% sucrose in PBS for 24-48 hours. For mouse TRPV4, keratin-specific antibodies, phospho-ERK, IL-6, IL-1β, CXCL5 and caspase-1, tissue was prepared as frozen blocks and subsequently sectioned on a cryostat. For CD68, CD15 (neutrophil elastase) and CD3, mouse skin was prepared by 2% PFA perfusion. Footpad and DRG sections (both at 6-10 μm) were thaw-mounted, blocked with 5% normal goat serum (NGS; Jackson), then incubated overnight at 4° C. with the following primary antibodies: rabbit anti-TRPV4 (1:300; Abcam), mouse anti-keratin 14 (1:300; Abcam against C-terminal peptide beyond residue 850); rabbit anti-keratin 14 (1:1000; Fuchs-Lab), rabbit anti-phosph-ERK1/2 (1:500; Cell signaling technologies), goat anti-IL-1β (1:800; Abcam), goat anti-IL-6 (1:200; Santa Cruz Biotechnology Inc); rabbit anti-caspase-1 (1:200; Biovision Research Products, CA); goat anti-mouse LIX/CXCL5 (1:200; R&D Systems Inc), anti-CD68, anti-[…], and anti-CD3 (AbDSerotec). Immunodetection was accomplished with appropriate fluorescently-labeled secondary antibodies (AlexaFluor595, AlexaFluor488-conjugated antibodies at 1:600; Invitrogen; for CD15 biotinylated secondary antibody from donkey, 1:400 followed by rhodamine-streptavidine 1:250), or with peroxidase-linked detection reagents (for CD68) for 2 hours at room-temperature. Sections were rinsed, mounted, and cover-slipped with fluoromount (Sigma). Digital micrographs were obtained using a BX61 Olympus upright microscope, also with a Zeiss LSM510 confocal, both equipped with high-res CCD camera, and acquired with constant exposure settings, using ISEE or Zeiss Zen software. Morphometric analysis was conducted using ImageJ freeware (v1.45) with tailored regions-of-interest that spared the nuclear compartment. ImageJ was also used for determination of DRG surface area.
# In view of TRPV4-dependence of ET/Edn1 expression in skin, we measured Edn1 mRNA abundance in GSK205 vs. vehicle treated paw-pad skin. […] In striking contrast, and in keeping with histopathology, Edn1 mRNA-expression in GSK205 topically-treated skin was found unchanged.
# We also tested the response of down-stream UVB effector mechanisms to GSK205 treatment in vivo.
# [1] = system: periostin secretion by keratinocytes; assay: Periostin secretion by keratinocytes in response to histamine; type: cell-based
# Text: As detailed in the Examples, secretion of periostin (93 kDa protein) by keratinocytes in response to histamine exposure is dependent on TRPV4. […] Periostin has a role in chronic allergic skin inflammation and also pathologic-fibrotic remodeling of the skin. Histamine activates TRPV4 channels via specific activation of histamine H1R-receptors in keratinocytes. This TRPV4-dependent calcium influx regulates release of periostin from keratinocytes. In terms of fibrotic tissue remodeling of organs, TRPV4 channels expressed by fibroblasts may have a role in lung fibrosis evoked by bleomycin, which may relate to fibroblasts elsewhere, including skin fibroblasts and synovial fibroblasts. Inhibitors as detailed herein may potently block TRPV4 activation in keratinocytes and also skin fibroblasts. Based on the above signaling mechanisms, this will attenuate and prevent fibrotic responses in the skin, also chronic skin-remodeling tissue responses mediated by endogenous pathogenetic mediator molecules such as periostin. As for synovia of the joint, one response to joint trauma is development of synovial fibrosis and contracture. Synoviocytes, synovial fibroblasts and infiltrating inflammatory cells may have roles in this maladaptive response, as all of these cells are known to express TRPV4. […]
structure (smiles),measurement,setting,value
CN(CCc1ccc(Nc2nc(-c3cccnc3)cs2)cc1)Cc1ccccc1 [GSK205],histopathology of UVB-photodermatitis,mouse paw-pad skin; topical 5 mM GSK205,virtual elimination of inflammation; also recorded: markedly reduced inflammatory infiltrate
same,keratinocyte expression of CXCL5 in UVB-exposed footpad,mouse paw-pad skin; topical 5 mM GSK205,significant blocks; also recorded: attenuates
same,keratinocyte expression of IL-1β in UVB-exposed footpad,mouse paw-pad skin; topical 5 mM GSK205,failed to upregulate; also recorded: attenuates
same,keratinocyte expression of IL-6 in UVB-exposed footpad,mouse paw-pad skin; topical 5 mM GSK205,significant blocks; also recorded: attenuates
same,Edn1 mRNA expression in paw-pad skin after UVB,"mouse paw-pad skin; topical 5 mM GSK205, 2 hour and 24 hour time-points",unchanged; also recorded: complete lack of this regulation
same,secretion of periostin by histamine-stimulated keratinocytes,[1],completely eliminated
